For 15 molecules, IC50 and EC50 results are on record in patent US20240246964A1 (Arbutus Biopharma Corporation, priority 2021, published 2024).

Usually IC50 stands for the concentration at which inhibition is half-maximal. A high value points to a need for much substance. Broadly, the EC50 is the concentration that produces a half-maximal response. A high value points to a less potent agent.

A value given as a limit tells only on which side of the number the result lay.

In test [1] the target is PD-L1 His protein / PD-1 Fc protein (Homo sapiens (Human), UniProt Q9NZQ7). The test is described as follows: HTRF Assay (PD-1/PD-L1 interaction). Type of test: binding. As to conditions: PD-L1 His 6 nM, PD-1 Fc 6 nM.
The target in the next test is human PD-L1 (Homo sapiens (Human), UniProt Q9NZQ7). Description: T cell activation luciferase reporter cell culture system (T Cell Activation Assay). As to conditions: luciferase reporter assay; PD-L1 aAPC/CHO-K1 cells with PD-1 effector Jurkat T cells. Type of test: cell-based. (In a reporter assay the amount or activity of a reporter protein is the signal.)
human PD-L1, sequence (Q9NZQ7 19-290): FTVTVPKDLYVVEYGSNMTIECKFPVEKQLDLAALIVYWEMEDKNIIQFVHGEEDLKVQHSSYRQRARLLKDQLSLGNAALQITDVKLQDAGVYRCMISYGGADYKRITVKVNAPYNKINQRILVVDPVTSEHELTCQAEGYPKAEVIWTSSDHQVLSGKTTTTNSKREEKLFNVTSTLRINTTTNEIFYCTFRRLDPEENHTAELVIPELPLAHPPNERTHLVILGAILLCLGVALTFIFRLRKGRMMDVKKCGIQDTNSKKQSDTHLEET

PD-L1 His protein / PD-1 Fc protein, sequence (Q9NZQ7 19-238): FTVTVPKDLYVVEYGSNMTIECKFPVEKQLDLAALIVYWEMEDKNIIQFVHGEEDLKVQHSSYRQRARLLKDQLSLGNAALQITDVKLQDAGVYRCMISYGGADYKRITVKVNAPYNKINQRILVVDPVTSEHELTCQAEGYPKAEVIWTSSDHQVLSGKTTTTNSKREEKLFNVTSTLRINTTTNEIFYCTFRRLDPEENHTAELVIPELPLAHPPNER

In test [1], `COc1cc(-c2nccc(-c3cccc(-c4ccc(CN5CC(C)(O)C5)c(OC)n4)c3Cl)c2Cl)cc2c1CN(C[C@H](C)O)CC2` [Compound 217, (S)-1-((6-(2-chloro-3-(3-chloro-2-(2-(2-hydroxypropyl)-8-methoxy-1,2,3,4-tetrahydroisoquinolin-6-yl)pyridin-4-yl)phenyl)-2-methoxypyridin-3-yl)methyl)-3-methylazetidin-3-ol] registered an IC50 of 2.01 nM. On human PD-L1, a half-maximal effect (EC50) was put at 38.2 nM.

`COC(=O)CNCc1ccc(-c2cccc(-c3ccnc(-c4cc5c(c(OC)c4)CN(C[C@H](C)O)CC5)c3Cl)c2Cl)nc1OC` [Compound 218, methyl (S)-((6-(2-chloro-3-(3-chloro-2-(2-(2-hydroxypropyl)-8-methoxy-1,2,3,4-tetrahydroisoquinolin-6-yl)pyridin-4-yl)phenyl)-2-methoxypyridin-3-yl)methyl)glycinate] yielded an IC50 in test [1] of 7.12 nM. The same molecule showed an EC50 on human PD-L1 of 601 nM.

For the molecule `COc1cc(-c2nccc(-c3cccc(-c4ccc5c(CN6CC7(CNC(=O)C7)C6)cn(C)c5n4)c3Cl)c2Cl)ccc1CNC[C@@H]1CCC(=O)N1` [Compound 219, (S)-2-((6-(2-chloro-3-(3-chloro-2-(3-methoxy-4-((((5-oxopyrrolidin-2-yl)methyl)amino)methyl)phenyl)pyridin-4-yl)phenyl)-1-methyl-1H-pyrrolo[2,3-b]pyridin-3-yl)methyl)-2,6-diazaspiro[3.4]octan-7-one], in test [1], half-maximal inhibition (IC50) was put at 2.73 nM. For the same molecule, it took 22.2 nM to reach a half-maximal effect on human PD-L1 (EC50).

For the molecule `CNCc1ccc(-c2cccc(-c3ccnc(-c4ccc(CNC[C@@H](O)CC(=O)O)c(OC)c4)c3Cl)c2Cl)nc1OC` [Compound 220, (S)-4-((4-(3-chloro-4-(2-chloro-3-(6-methoxy-5-((methylamino)methyl)pyridin-2-yl)phenyl)pyridin-2-yl)-2-methoxybenzyl)amino)-3-hydroxybutanoic acid], the IC50 in test [1] stood at 2.18 nM. The EC50 on human PD-L1 came out at 76.1 nM.

As for `CNCc1ccc(-c2cccc(-c3ccnc(-c4ccc(CNCCC(=O)O)c(OC)c4)c3Cl)c2Cl)nc1OC` [Compound 221, 3-((4-(3-chloro-4-(2-chloro-3-(6-methoxy-5-((methylamino)methyl)pyridin-2-yl)phenyl)pyridin-2-yl)-2-methoxybenzyl)amino)propanoic acid], half-maximal inhibition in test [1] (IC50) was put at 0.2 nM. This molecule also registered an EC50 at human PD-L1 of 64.4 nM.

In the case of `COc1nc(-c2ccnc(-c3cccc4c3CC[C@@H]4Nc3nc(OC)c(CNC[C@@H]4CCC(=O)N4)cc3C(F)(F)F)c2Cl)ccc1CNC[C@@H]1CCC(=O)N1` [Compound 223, (S)-5-((((3′-chloro-6-methoxy-2′-((S)-1-((6-methoxy-5-(((((S)-5-oxopyrrolidin-2-yl)methyl)amino)methyl)-3-(trifluoromethyl)pyridin-2-yl)amino)-2,3-dihydro-1H-inden-4-yl)-[2,4′-bipyridin]-5-yl)methyl)amino)methyl)pyrrolidin-2-one], the IC50 in test [1] came to 7.24 nM. Besides, the response on human PD-L1 was half-maximal at 16.7 nM (EC50).

In test [1], `CNCc1ccc(-c2ccnc(-c3cccc4c3CC[C@@H]4Nc3nc(OC)c(CNC)cc3C(F)(F)F)c2Cl)nc1OC` [Compound 224, (S)-N-(4-(3′-chloro-6-methoxy-5-((methylamino)methyl)-[2,4′-bipyridin]-2′-yl)-2,3-dihydro-1H-inden-1-yl)-6-methoxy-5-((methylamino)methyl)-3-(trifluoromethyl)pyridin-2-amine] came in with an IC50 of 8.22 nM. Further, the EC50 at human PD-L1 was not below 10000 nM.

As to `COc1nc(-c2ccnc(-c3cccc4c3CC[C@@H]4Nc3nc(OC)c(CN[C@H]4C[C@](C)(O)C4)cc3C(F)(F)F)c2Cl)ccc1CN[C@H]1C[C@](C)(O)C1` [Compound 225, (1S,3r)-3-(((3′-chloro-2′-((S)-1-((5-((((1r,3S)-3-hydroxy-3-methylcyclobutyl)amino)methyl)-6-methoxy-3-(trifluoromethyl)pyridin-2-yl)amino)-2,3-dihydro-1H-inden-4-yl)-6-methoxy-[2,4′-bipyridin]-5-yl)methyl)amino)-1-methylcyclobutan-1-ol], in test [1], 8.2 nM corresponded to half-maximal inhibition (IC50). At human PD-L1, this molecule yielded an EC50 not below 10000 nM.

Molecule `CNCc1ccc(-c2cccc(-c3ccnc(-c4ccc(CN5CC[C@H](C(=O)O)C5)c(OC)c4)c3Cl)c2Cl)nc1OC` [Compound 226, (S)-1-(4-(3-chloro-4-(2-chloro-3-(6-methoxy-5-((methylamino)methyl)pyridin-2-yl)phenyl)pyridin-2-yl)-2-methoxybenzyl)pyrrolidine-3-carboxylic acid] returned an IC50 in test [1] of 0.27 nM. Also, the EC50 at human PD-L1 was found to be 62.7 nM.

Consider `CNCc1ccc(-c2cccc(-c3ccnc(-c4ccc(CN5CC6(CC(C(=O)O)C6)C5)c(OC)c4)c3Cl)c2Cl)nc1OC` [Compound 227, 2-(4-(3-chloro-4-(2-chloro-3-(6-methoxy-5-((methylamino)methyl)pyridin-2-yl)phenyl)pyridin-2-yl)-2-methoxybenzyl)-2-azaspiro[3.3]heptane-6-carboxylic acid], for which the IC50 in test [1] was determined as 5.25 nM. The molecule further yielded an EC50 on human PD-L1 of 31.3 nM.

For `CNCc1ccc(-c2cccc(-c3ccnc(-c4ccc(CNCC56CC(C(=O)O)(C5)C6)c(OC)c4)c3Cl)c2Cl)nc1OC` [Compound 228, 3-(((4-(3-chloro-4-(2-chloro-3-(6-methoxy-5-((methylamino)methyl)pyridin-2-yl)phenyl)pyridin-2-yl)-2-methoxybenzyl)amino)methyl)bicyclo[1.1.1]pentane-1-carboxylic acid], the IC50 in test [1] worked out at 0.23 nM. Also, on human PD-L1, the EC50 turned out to be 75.5 nM.

With `COc1cc(-c2nccc(-c3cccc(-c4ccc(CNCC(=O)O)c(OC)n4)c3Cl)c2Cl)cc2c1CN(C[C@H](C)O)CC2` [Compound 229, (S)-((6-(2-chloro-3-(3-chloro-2-(2-(2-hydroxypropyl)-8-methoxy-1,2,3,4-tetrahydroisoquinolin-6-yl)pyridin-4-yl)phenyl)-2-methoxypyridin-3-yl)methyl)glycine], the IC50 in test [1] worked out at 1.13 nM. The same molecule displayed an EC50 at human PD-L1 of 244 nM.

`COc1nc(-c2cccc(-c3ccnc(-c4ccc5c(c4)CNC5)c3Cl)c2Cl)ccc1CN1CC2(CNC(=O)C2)C1` [Compound 230, 2-((6-(2-chloro-3-(3-chloro-2-(isoindolin-5-yl)pyridin-4-yl)phenyl)-2-methoxypyridin-3-yl)methyl)-2,6-diazaspiro[3.4]octan-7-one] registered an IC50 in test [1] of 10.8 nM. The molecule further registered an EC50 at human PD-L1 of 392 nM.

In the case of `COc1cc(-c2nccc(-c3ccnc(-c4cc5c(c(OC)c4)CN(C[C@@H]4CCC(=O)N4)CC5)c3Cl)c2Cl)cc2c1CN(C[C@@H]1CCC(=O)N1)CC2` [Compound 266, (5S,5'S)-5,5′-(((3,3′-Dichloro-[4,4′-bipyridine]-2,2′-diyl)bis(8-methoxy-3,4-dihydroisoquinoline-6,2(1H)-diyl))bis(methylene))bis(pyrrolidin-2-one)], the concentration for half-maximal inhibition (IC50) in test [1] turned out to be 18.4 nM. The same molecule registered an EC50 at human PD-L1 of 439 nM.

In test [1], `COC(=O)[C@H](CCO)NCc1ncc(-c2nccc(-c3cccc(-c4ccc(CNC[C@@H]5CCC(=O)N5)c(OC)n4)c3Cl)c2Cl)cc1OC` [Compound 267, Methyl ((3-chloro-4-(2-chloro-3-(6-methoxy-5-(((((S)-5-oxopyrrolidin-2-yl)methyl)amino)methyl)pyridin-2-yl)phenyl)-5′-methoxy-[2,3′-bipyridin]-6′-yl)methyl)-L-homoserinate] returned an IC50 of 2.97 nM. This molecule also registered an EC50 at human PD-L1 of 639 nM.
